Results reported in a compilation of properties of binary mixtures (doi:10.1007/s10953-019-00868-0).

Assay: xn = mol fraction of the nth substance listed
Details: 101.3 kPa

NCCNCCN + CCCC[n+]1ccn(C)c1.F[B-](F)(F)F
viscosity [mPa·s]
Details | 298.15 K | 303.15 K | 308.15 K | 313.15 K | 318.15 K | 323.15 K | 328.15 K | 333.15 K
x2 = 0 | – | 4.5 | 3.86 | 3.4 | 3.05 | 2.7 | 2.45 | 2.032
x2 = 0.051 | 6.71 | 5.56 | 4.85 | 4.31 | – | 3.55 | 3.2 | 2.67
x2 = 0.1986 | 12.1 | 10.27 | 8.94 | – | 7.06 | 6.33 | 5.68 | –
x2 = 0.2998 | 17.35 | – | – | 10.9 | 9.7 | – | – | –
x2 = 0.3995 | – | 19.78 | 16.7 | – | 12.77 | – | – | 8.72
x2 = 0.4992 | 31.5 | – | 22.15 | – | 16.63 | 14.65 | – | –
x2 = 0.5905 | – | – | 28.1 | 24.07 | 20.88 | – | 15.53 | 13.88
x2 = 0.6974 | 52.6 | – | 36.3 | – | 26.6 | 23.13 | – | –
x2 = 0.8012 | 67.1 | 56.4 | 46 | 38.8 | 33.2 | 28.5 | 23.39 | 21.3
x2 = 0.8948 | 82.6 | – | 55.7 | 46.5 | 39.2 | 33.3 | 26.7 | 24.18
x2 = 0.9496 | 91.9 | 76.4 | 60.4 | 49.8 | 42 | – | 27.2 | –

CCCC[n+]1ccn(C)c1.F[B-](F)(F)F + NCCNCCN
x1 = 1
Details | viscosity [mPa·s]
313.15 K | 51.4
318.15 K | 42.1
323.15 K | 34.8
333.15 K | 24.7
